Measurements: patent US6215002A, “Pyrrolopyrrolone derivatives as inhibitors of neutrophil elastase” (priority 1996, dated 2001)
pIC50: −log10 of the molar value. Structures can show the parent of a compound that is named as a salt.

Legend:
[1] = target: T1, human neutrophil elastase (Homo sapiens, UniProt P08246); experiment: In vitro assay of human neutrophil elastase (HNE); type: biochemical; conditions: 118 nM purified human neutrophil elastase, pH 8.6, 15 min incubation at 30° C., MeO-succinyl-alanyl-alanyl-prolyl-valyl-p-nitroanilide substrate; read-out: HNE IC50
T1 sequence (P08246 30-267): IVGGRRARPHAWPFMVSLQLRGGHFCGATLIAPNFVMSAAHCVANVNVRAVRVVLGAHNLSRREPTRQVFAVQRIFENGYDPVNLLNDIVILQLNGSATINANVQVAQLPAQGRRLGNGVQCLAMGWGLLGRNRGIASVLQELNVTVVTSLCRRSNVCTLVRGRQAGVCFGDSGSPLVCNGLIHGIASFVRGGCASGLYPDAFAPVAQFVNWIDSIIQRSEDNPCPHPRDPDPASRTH
Method in brief: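 Residual activity was taken as the 10 min rate of absorbance rise at 405 nm after adding 0.6 mM MeO-succinyl-AAPV-p-nitroanilide. Curve fitting of activity against concentration gave IC50.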

[2] = tested on: Intracellular elastase; experiment: Oral in vivo model using IL-8 induced lung infiltrates for the assessment of intracellular elastase inhibition (hamster test); conditions: effective dose of less than 40 mg/kg, IL-8 intratracheal
Method in brief: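 Fasted adult hamsters (n=4) given compound orally in water, with intratracheal 1 ug recombinant human IL-8; sacrificed 6 h later. Neutrophils from lung lavage and femoral bone marrow sonicated, granules disrupted, and elastase measured, with myeloperoxidase used to normalise for neutrophil recovery.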

Row | Structure (SMILES) | pIC50 [1] | duration of effect [2]
1 | CC(C)[C@H]1C(=O)N(S(C)(=O)=O)[C@H]2CCN(C(=O)c3ccc(CN4C(C)CCC4C)cc3)[C@H]12.Cl (relative stereo) [Example 186, rel-(3R,3aR,6aS)-4-[4-(2,5-Dimethyl-pyrrolidin-1-ylmethyl)-benzoyl]-3-isopropyl-1-methanesulfonyl-hexahydro-pyrrolo[3,2-b]pyrrol-2-one hydrochloride] | 7.28 | at least 6 hours
2 | CC(C)[C@H]1C(=O)N(S(C)(=O)=O)[C@H]2CCN(C(=O)c3cccc(CN4CCN(C)CC4)c3)[C@H]12.Cl.Cl (relative stereo) [Example 189, rel-(3R,3aR,6aS)-3-Isopropyl-1-methanesulfonyl-4-[3-(4-methyl-piperazin-1-ylmethyl)-benzoyl]-hexahydro-pyrrolo[3,2-b]pyrrol-2-one dihydrochloride] | 7.21 | at least 6 hours
3 | CC(C)[C@H]1C(=O)N(S(C)(=O)=O)[C@H]2CCN(C(=O)c3cccc(CN4CCC(C(N)=O)CC4)c3)[C@H]12.Cl (relative stereo) [Example 191, rel-1-[3-(6R-Isopropyl-4-methanesulfonyl-5-oxo-hexahydro-(3aS,6aR)-pyrrolo[3,2-b]pyrrole-1-carbonyl)-benzyl]-piperidine-4-carboxylic acid amide hydrochloride] | 7.39 | at least 6 hours
4 | CC(C)[C@H]1C(=O)N(S(C)(=O)=O)[C@H]2CCN(C(=O)c3cccc(CN4CCCCC4)c3)[C@H]12 (relative stereo) [Example 192, rel-(3R,3aR,6aS)-3-Isopropyl-1-methanesulfonyl-4-(3-piperidin-1-ylmethyl-benzoyl)-hexahydro-pyrrolo]3,2-b]pyrrol-2-one hydrochloride] | 7.21 | at least 6 hours
5 | CC(C)[C@H]1C(=O)N(S(C)(=O)=O)[C@H]2CCN(C(=O)c3cccc(CN4CCCC4)c3)[C@H]12 (relative stereo) [Example 193, rel-(3R,3aR,6aS)-3-Isopropyl-1-methanesulfonyl-4-(3-pyrroidin-1-ylmethyl-benzoyl)-hexahydro-pyrrolo[3,2-b]pyrrol-2-one hydrochloride] | 7.30 | at least 6 hours
6 | CC(C)[C@H]1C(=O)N(S(C)(=O)=O)[C@H]2CCN(C(=O)c3ccc(CN4C(C)CCCC4C)cc3)[C@H]12.Cl (relative stereo) [Example 200, rel-(3R,3aR,6aS)-4-[4-(2,6-Dimethyl-piperidin-1-ylmethyl)-benzoyl]-3-isopropyl-1-methanesulfonyl-hexahydropyrrolo[3,2-b]pyrrol-2-one hydrochloride] | 7.28 | at least 6 hours
7 | CC(C)[C@H]1C(=O)N(S(C)(=O)=O)[C@H]2CCN(C(=O)c3ccc(CN4CCCCC4)o3)[C@H]12.Cl (relative stereo) [Example 250, rel-(3R,3aR,6aS)-3-Isopropyl-1-methanesulfonyl-4-(5-piperidin-1-ylmethyl-furan-2-carbonyl)-hexahydro-pyrrolo[3,2-b]pyrrol-2-one hydrochloride] | 7.68 | at least 6 hours
8 | CC(C)[C@H]1C(=O)N(S(C)(=O)=O)[C@H]2CCN(C(=O)c3ccc(CNC4CC4)o3)[C@H]12 (relative stereo) [Example 252, rel-(3R,3aR,6aS)-4-(5-Cyclolpropylaminomethyl-furan-2-carbonyl)-3-isopropyl-1-methanesulfonyl-hexahydro-pyrrolo[3,2-b]pyrrol-2-one hydrochloride] | 7.85 | at least 6 hours
9 | CC(C)[C@H]1C(=O)N(S(C)(=O)=O)[C@H]2CCN(C(=O)c3cccc(CN(C)C)c3)[C@H]12 (relative stereo) [Example 253, rel-(3R3aR,6aS)-4-(3-Dimethylaminomethyl-benzoyl)-3-isopropyl-1-methanesulfonyl-hexahydro-pyrrolo[3,2-b]pyrrol-2-one hydrochloride] | 7.12 | at least 6 hours
10 | CCC[C@@H]1C(=O)N(S(C)(=O)=O)[C@@H]2CCN(C(=O)CCCCCN3CCCCCC3)[C@@H]12 [Example 117, hydrochloride] | 7.57 | at least 6 hours
11 | CCC[C@@H]1C(=O)N(S(C)(=O)=O)[C@@H]2CCN(C(=O)CCN3CCCCC3)[C@@H]12.Cl [Example 118, (3S,3aS,6aR)-1-Methanesulfonyl-4-(3-piperidin-1-yl-propionyl)-3-propyl-hexahydro-pyrrolo[3,2-b]pyrrol-2-one hydrochloride] | 7.14 | at least 6 hours

More lines, in order of rising pIC50 [1], values ahead:

Row | pIC50 [1] | Structure (SMILES) | duration of effect [2]
12 | 7.01 | CCC[C@H]1C(=O)N(S(C)(=O)=O)[C@H]2CCN(C(=O)/C=C/CN3CCN(C)CC3)[C@H]12.Cl.Cl (relative stereo) [Example 254, rel-(3R,3aR,6aS)-1-Methanesulfonyl-4-[4-(4-methyl-piperazin-1-yl)-but-2E-enoyl]-3-propyl-hexahydro-pyrrolo[3,2-b]pyrrol-2-one dihydrochloride] | at least 6 hours
13 | 7.17 | CC(C)[C@H]1C(=O)N(S(C)(=O)=O)[C@H]2CCN(C(=O)c3cccs3)[C@H]12 (relative stereo) [Example 249, rel-(3R,3aR,6aS)-3-Isopropyl-1-methanesulfonyl-4-(thiophene-2-carbonyl)-hexahydro-pyrrolo[3,2-b]pyrrol-2-one] | at least 6 hours
14 | 7.17 | CC(C)[C@H]1C(=O)N(S(C)(=O)=O)[C@H]2CCN(C(=O)c3ccc(CN4CCNCC4)cc3)[C@H]12.Cl.Cl (relative stereo) [Example 188, rel-(3R,3aR,6aS)-3-Isopropyl-1-methanesulfonyl-4-(4-piperazin-1-ylmethyl-benzoyl)-hexahydro-pyrrolo[3,2-b]pyrrol-2-one dihydrochloride] | at least 6 hours
15 | 7.22 | CC(C)[C@H]1C(=O)N(S(C)(=O)=O)[C@H]2CCN(C(=O)c3ccco3)[C@H]12 (relative stereo) [Example 248, rel-(3R,3aR,6aS)-4-(Furan-2-carbonyl)-3-isopropyl-1-methanesulfonyl-hexahydro-pyrrolo[3,2-b]pyrrol-2-one] | at least 6 hours
16 | 7.34 | CC(C)[C@H]1C(=O)N(S(C)(=O)=O)[C@H]2CCN(C(=O)c3ccc(CN(C(C)C)C(C)C)cc3)[C@H]12 (relative stereo) [Example 201, rel-(3R,3aR,6aS)-4-{4-(Diisopropylamino)-methy]benzoyl}3-isopropyl-1-methanesulfonyl-hexahydro-pyrrolo[3,2-b]pyrrol-2-one hydrochloride] | at least 6 hours
17 | 7.37 | CC(C)[C@H]1C(=O)N(S(C)(=O)=O)[C@H]2CCN(C(=O)c3ccc(CN4CCC(C(N)=O)CC4)cc3)[C@H]12.Cl (relative stereo) [Example 187, rel-1-[4-(6R-Isopropyl-4-methanesulfonyl-5-oxo-hexahydro-(3aS,6aR)-pyrrolo[3,2-b]pyrrole-1-carbonyl)-benzyl]-piperidine-4-carboxylic acid amide hydrochloride] | at least 6 hours
18 | 7.37 | CC(C)[C@H]1C(=O)N(S(C)(=O)=O)[C@H]2CCN(C(=O)c3ccc(CN(C)C)o3)[C@H]12.Cl (relative stereo) [Example 251, rel-(3R,3aR,6aS)-4-(5-Dimethylaminomethyl-furan-2-carbonyl)-3-isopropyl-1-methanesulfonyl-hexahydro-pyrrolo[3,2-b]pyrrol-2-one hydrochloride] | at least 6 hours
19 | 7.62 | CC(C)[C@H]1C(=O)N(S(C)(=O)=O)[C@H]2CCN(C(=O)c3cccc(CNC4CC4)c3)[C@H]12.Cl (relative stereo) [Example 190, rel-(3R,3aR,6aS)-4-(3-Cyclopropylaminomethyl-benzoyl)-3-isopropyl-1-methanesulfonyl-hexahydro-pyrrolo[3,2-b]pyrrol-2-one hydrochloride] | at least 6 hours
